Patent publication US12670969B2, “Network medicine framework for identifying drug repurposing opportunities” (Northeastern University, priority 2020, dated 2026)

Legend:
SARS-CoV-2 = settings: positive control used at 5 μM; cited from earlier work
[1] = system: SARS-CoV-2 strain USA-WA1/2020; format: cell-based; settings: VeroE6 cells, drugs from 8 μM down to 8 nM
Huh7 cells = settings: in high concentration
Caco-2 = Caco-2 cells; cited from earlier work

CC(C)C[C@H](NC(=O)[C@H]1O[C@@H]1C(=O)O)C(=O)NCCCCN=C(N)N [E-64]
inhibition of SARS-CoV-2 infection, previously reported (SARS-CoV-2): inhibit SARS-CoV-2 infection

CC(C)c1nc(CN(C)C(=O)N[C@H](C(=O)N[C@@H](Cc2ccccc2)C[C@H](O)[C@H](Cc2ccccc2)NC(=O)OCc2cncs2)C(C)C)cs1 [Ritonavir]
outcome in VeroE6 screen, in words [1]: no effect

CN(C)CCC=C1c2ccccc2CCc2ccccc21 [amitriptyline]
outcome in VeroE6 screen, in words [1]: S&W

CC(=O)OC[C@H]1O[C@@H]([S-])[C@H](OC(C)=O)[C@@H](OC(C)=O)[C@@H]1OC(C)=O.CCP(CC)CC.[Au+] [auranofin]
cytotoxicity in Huh7 cells (reduced nuclei count) (Huh7 cells): tracing cytotoxicity

CN1CCCC(n2nc(Cc3ccc(Cl)cc3)c3ccccc3c2=O)CC1 (stereo not drawn) [azelastine]
cytotoxicity in Huh7 cells (reduced nuclei count) (Huh7 cells): tracing cytotoxicity

CCN(CC)CCCC(C)Nc1ccnc2cc(Cl)ccc12 (stereo not drawn) [chloroquine]
outcome in VeroE6 screen, in words [1]: positive outcomes

CCN(CCO)CCCC(C)Nc1ccnc2cc(Cl)ccc12 (stereo not drawn) [hydroxychloroquine]
outcome in VeroE6 screen, in words [1]: positive outcomes

CCOC(=O)N1CCC(=C2c3ccc(Cl)cc3CCc3cccnc32)CC1 [loratadine]
viral activity in human cell line Caco-2 (Caco-2): inhibited viral activity
drug-response classification (S, W, C, N) of effect on SARS-CoV-2 infection ([1]; MOI about 0.2): N
